Assay results taken from patent US20040115237A1, “Biocompatible composite” (priority 2001, published 2004).

Columns and labels:
HA-VSCMs = test: HA-VSMC culture on silicone based film membranes, viability staining viewed under CLSM; format: cell-based, Human; conditions: GTN coated FISi membrane vs FISi only film membranes
Experimental: HA-VSCMs were cultured on silicone based film membranes supplied by Vascutek. 2 membrane types were tested: uncoated FISi membrane and FISi membrane coated with GTN. Cells were seeded at 5×10^3 seeding density. Cells were cultured for a week and the medium was changed every two days. […] This problem was overcome by sticking the coverslips to the plate with double sided tape before the wells were seeded. Furthermore the cells were washed off during staining or the cells were saved for too long. Some cells were saved by introducing a gentle washing step. On the seventh day, the coverslips were stained and viewed under the CLSM for viability studies.
The following were used as viability stains; CFDA (carboxyfluorescein diacetate) is a vital stain that penetrates cell membranes. Viable cells contain esterase enzymes that remove the diacetate from the molecule thus forming CF which is fluorescent. Once CF if formed, it accumulates in the membrane and viable cells with fluoresce bright green.
Ethidium Bromide: is a vital dye that is only able to pass through the compromised membrane of dead cells and stain them red.
Acridine Orange: is a dye which intercalates with DNA and RNA by intercalation or electrostatic attraction.

[1] = system: Human Aortic Vascular SMC cell line; test: SMC growth inhibition after drug exposure, MTT assay and Neutral Red assay; format: cell-based; conditions: high doses; analysed after 72 hours
Experimental: The Human Aortic Vascular SMC cell line was investigated. 96 well plates were seeded and were incubated for at least one day. Medium from the plate was removed and replaced with medium containing varying concentrations of drugs, the drugs being dex, aspirin, GTN or a combination of these drugs. The effects of the drugs were analysed after 72 hours with two viability assays: MTT assay and Neutral Red assay. Absorbance values were read from a microplate reader. MTT is a yellow tetrazolium salt taken up into cells. In viable cells, the salt was reduced in cytosol or mitochondria to form blue formazan salt. The formazan product was very insoluble and was disolved in dimethylsulphoxide before its absorbance was calculated. In non-viable cells, there was no reaction and the cells remained yellow. The Neutral Red assay involved adding neutral red solution, a red dye to cells. In viable cells, the dye stained lysosomes. The cells were incubated with neutral red solution for three hours (to enable dye to penetrate cells), a neutral red destain solution was then added to remove the dye. The intensity of the red colour equated to the number of viable cells.

Row | SMILES | cell growth compared to FISi only film membranes (HA-VSCMs) | role in the treatment of vascular proliferative disorder (SMC growth inhibition) [1]
1 | O=[N+]([O-])OCC(CO[N+](=O)[O-])O[N+](=O)[O-] [GTN, Glyceryl Trinitrate] | does not significantly decrease cell growth | –
2 | CC(=O)Oc1ccccc1C(=O)O [aspirin, acetylsalicylic acid] | – | appear to have a beneficial role
